Source: patent US20100152261A1 (MITSUBISHI TANABE PHARMA CORPORATION, priority 2005, published 2010)
Like-named read-outs stand apart in the source and are kept apart here.

Assays:
muscarinic M3 receptor = biological target: T1, muscarinic M3 receptor (Cavia porcellus, UniProt H0W1Z3); test: Muscarinic M3 antagonistic action in isolated guinea pig trachea (carbachol-induced contraction, Schild method); type: cell-based; details: compound applied 15 minutes before carbachol
T1 construct: trachea was excised, and cut at every two tracheal cartilages to prepare tissue specimens; from tissue; host or cells: isolated guinea pig trachea (male Hartley)
T1 sequence (H0W1Z3 1-590): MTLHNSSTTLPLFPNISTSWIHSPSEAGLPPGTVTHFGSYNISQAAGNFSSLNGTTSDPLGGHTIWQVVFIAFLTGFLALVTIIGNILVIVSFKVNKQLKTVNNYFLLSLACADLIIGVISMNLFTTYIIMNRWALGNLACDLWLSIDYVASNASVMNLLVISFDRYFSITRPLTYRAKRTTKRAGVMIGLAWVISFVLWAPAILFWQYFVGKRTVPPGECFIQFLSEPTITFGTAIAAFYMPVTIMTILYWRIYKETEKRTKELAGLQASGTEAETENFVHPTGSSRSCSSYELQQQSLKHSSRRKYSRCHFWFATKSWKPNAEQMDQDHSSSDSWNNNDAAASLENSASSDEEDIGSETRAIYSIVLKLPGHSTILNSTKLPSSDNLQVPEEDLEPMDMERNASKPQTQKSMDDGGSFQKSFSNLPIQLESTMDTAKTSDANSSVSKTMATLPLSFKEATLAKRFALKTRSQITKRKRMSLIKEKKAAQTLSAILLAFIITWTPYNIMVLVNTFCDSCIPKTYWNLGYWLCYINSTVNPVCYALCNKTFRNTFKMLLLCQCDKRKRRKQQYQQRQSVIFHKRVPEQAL
Description: Muscarinic M3 Antagonistic Action in Isolated Guinea Pig Trachea
Male Hartley guinea pigs (350 to 600 g) were sacrificed by bleeding, and trachea was excised, and cut at every two tracheal cartilages to prepare tissue specimens. Each tissue specimen was kept warm at 37° C., suspended with a resting tension of 1 g in a 5-mL Magnus bath filled with a Krebs carbonate buffer containing indomethacin (1 μM) bubbled with 95% O2/5% CO2, and left for 60 minutes as a stabilization period. […] After the measurement, the tissue specimen was immediately washed, and left for 60 minutes as a stabilization period before the next contraction reaction, and the tissue specimen of which EC50 for the carbachol-induced contraction reaction was stabilized was considered as a control. Each test compound was applied 15 minutes before the addition of carbachol. The affinity (pA2) of the test compound was obtained by the Schild method (Arunlakshana, O. and Schild, H. O., Brit. J. Pharmacol., 1959, 14, 48-58).

muscarinic M2 receptor = biological target: T2, muscarinic M2 receptor (Cavia porcellus, UniProt H0VRN8); test: Muscarinic M2 antagonistic action in isolated guinea pig left atrium (carbachol-induced relaxation, Schild method); type: cell-based; details: compound applied 30 minutes before carbachol
T2 construct: left atria were excised to prepare tissue specimens; from tissue; host or cells: isolated guinea pig left atrium (male Hartley)
T2 sequence (H0VRN8 1-466): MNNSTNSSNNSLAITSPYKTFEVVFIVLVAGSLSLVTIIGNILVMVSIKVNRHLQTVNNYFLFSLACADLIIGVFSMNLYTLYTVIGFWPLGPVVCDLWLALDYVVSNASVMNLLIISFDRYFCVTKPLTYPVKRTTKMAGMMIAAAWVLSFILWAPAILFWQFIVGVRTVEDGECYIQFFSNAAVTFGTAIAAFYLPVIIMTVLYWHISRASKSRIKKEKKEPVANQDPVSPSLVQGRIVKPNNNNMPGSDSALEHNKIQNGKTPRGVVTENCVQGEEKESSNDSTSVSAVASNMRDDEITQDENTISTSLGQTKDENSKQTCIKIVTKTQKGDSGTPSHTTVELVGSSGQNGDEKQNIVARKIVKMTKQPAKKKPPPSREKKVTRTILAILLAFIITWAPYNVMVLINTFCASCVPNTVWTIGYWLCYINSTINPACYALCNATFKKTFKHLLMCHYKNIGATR
Description: Muscarinic M2 Antagonistic Action in Isolated Guinea Pig Left Atrium […] Each tissue specimen was kept warm at 37° C., suspended with a resting tension of 0.5 g in a 5-mL Magnus bath filled with a Krebs carbonate buffer bubbled with 95% O2/5% CO2. Then, contraction evoked by field electrical stimulation (4 Hz, 2 msec, 1.5×threshold potential) was measured. After a stabilization period of 60 minutes, carbachol-induced relaxation was isometrically measured and recorded by the cumulative method from 10^−8 M with an interval of 90 seconds for one concentration in an equal ratio of 3. After the measurement, the tissue specimen was immediately washed, and left for 45 minutes as a stabilization period before the next observation. The tissue specimen of which EC50 for the carbachol-induced relaxation was stabilized was considered as a control. Each test compound was applied 30 minutes before the addition of carbachol. The affinity (pA2) of the test compound was obtained in the same manner as in the case of the trachea.

[1] = system: Bronchoconstriction in Guinea Pigs (induced with acetylcholine); test: Effect on bronchoconstriction in guinea pigs (via inhalation administration), Konzett method; type: in vivo; details: Cavia porcellus, iv; guinea pig, intratracheal administration 10 μL g/head, 24 hours after administration, acetylcholine 4 μg/kg i.v., versus control group; read-out: Percent of inhibition of bronchoconstriction (%)
Description: Effect on Bronchoconstriction in Guinea Pigs (Via Inhalation Administration)
The test was performed according to the method of Konzett et al. (Arch. Exp. Path Pharmak., 1940, 195, 71-74). Male Hartley guinea pigs (350 to 600 g) were anesthetized with urethane (1.8 g/kg, i.p.), and then a cannula for drug administration was inserted into each left jugular vein. After the immobilization with decamethonium (2 mg/kg, i.v.), a tracheal cannula was inserted, and controlled respiration was attained by a respirator (Harvard). Bronchoconstriction was measured as changes of airway pressure with a pressure transducer (Nihon Kohden Corp.). Each test compound was administered (10 μL g/head) from dissected trachea by using a device for intratracheal administration of liquid for guinea pigs (Penn Century), and after suture, the animals were returned to usual breeding. After 24 hours, acetylcholine (4 μg/kg, i.v.) was administered to induce bronchoconstriction, and inhibitory activity on bronchoconstriction was calculated as percent inhibition comparing to the change of airway pressure in control group was obtained.

[2] = pA2 Trachea M3, isolated guinea pig trachea
[3] = pA2 Left atrium M2, isolated guinea pig left atrium

COCC[n+]1ccn([C@@H]2CC[C@H](C(C(N)=O)(c3ccccc3)c3ccccc3)C2)c1C [Example 63, 3-((1R,3S)-3-(Carbamoyl(diphenyl)methyl)cyclopentyl)-1-(2-methoxyethyl)-2-methyl-3H-imidazol-1-ium bromide]
Kb (muscarinic M3 receptor; [2]): 0.316 nM
Kb (muscarinic M2 receptor; [3]): 7.94 nM
inhibition in vivo at 0.01 mg [1]: 100%

Cc1n([C@H]2CC[C@@H](C(C(N)=O)(c3ccccc3)c3ccccc3)C2)cc[n+]1Cc1ccccc1 [Example 83, 3-((1S,3R)-3-(Carbamoyl(diphenyl)methyl)cyclopentyl)-1-benzyl-2-methyl-3H-imidazol-1-ium bromide]
Kb (muscarinic M3 receptor; isolated guinea pig trachea, read-out: pA2 Trachea M3 (converted)): 0.0794 nM
Kb (muscarinic M2 receptor; isolated guinea pig left atrium, read-out: pA2 Left atrium M2 (converted)): 5.01 nM
inhibition in vivo at 0.01 mg [1]: 100%

CC(=O)C[n+]1ccn([C@@H]2CC[C@H](C(C(N)=O)(c3ccccc3)c3ccccc3)C2)c1C [Example 90, 3-((1R,3S)-3-(Carbamoyl(diphenyl)methyl)cyclopentyl)-2-methyl-1-(2-oxopropyl)-3H-imidazol-1-ium bromide]
Kb (muscarinic M3 receptor; [2]): 0.794 nM
Kb (muscarinic M2 receptor; [3]): 316 nM
inhibition in vivo at 0.01 mg [1]: 100%

Cc1n([C@@H]2CC[C@H](C(C(N)=O)(c3ccccc3)c3ccccc3)C2)cc[n+]1Cc1ccccc1 [Example 91, 3-((1R,3S)-3-(Carbamoyl(diphenyl)methyl)cyclopentyl)-1-benzyl-2-methyl-3H-imidazol-1-ium bromide]
Kb (muscarinic M3 receptor; [2]): 0.1 nM
Kb (muscarinic M2 receptor; [3]): 3.98 nM
inhibition in vivo at 0.01 mg [1]: 100%
